Key:
[1] = adults; ref [3], [4]; cited from earlier work
[2] = Population pharmacokinetic analysis (NONMEM) of intravenous PCM and its metabolites in plasma and urine of preterm neonates born below 32 weeks of gestation; type: in vivo; conditions: for fVG / fVS / fVO, distribution volume of metabolite as fraction of VP of PCM: V = fV×VP
Method: Two datasets were pooled in this study. […] The second dataset consisted of data from 83 neonates born before 32 weeks of gestation who were included in the Drug dosage Improvement in Neonates (DINO) study between September 2014 and July 2017. This study was conducted in four Dutch Neonatal Intensive Care Units. The Erasmus Medical Center ethics review board approved the protocols, and written informed consent from parents/legal guardians was obtained before study initiation (NL47409.078.14, MEC-2014-067, NCT02421068). […] The actual urine collection interval and volume varied and were recorded. Plasma samples of all patients were available. […] In dataset 2, the dosing schedule was based on current weight according to Wang et al. […] The dosing regimen could be adapted in individual patients by the treating physician. […] No urine samples were collected. […] For those BLOQ samples, the values obtained with the assay were still reported and these were used in the PopPK analysis. […] Processing and visualization of output from NONMEM were performed in R 4.2.3 (CRAN.R-project.org). Parameters were estimated using the first-order conditional estimation with interaction (FOCE + I) method. […] Parameter precision was obtained with the R covariance matrix. […] The stochastic model included interindividual variability (IIV) and residual variability (RUV). […] SD assumes that the standard deviation of the residual error is the sum of the additive and proportional components. Separate SD1 and SD2 values were tested for each dataset, compound and for plasma and urine samples. […] In those cases, linear interpolation was used for current weight between two existing current weight measurements of the particular patient. For implementation of continuous covariates (birthweight, current weight, GA, PNA, PMA, birthweight Z-score), linear, power, exponential, and sigmoidal functions were tested. For categorical covariates (gender, SGA), additive shift models were tested. Covariates were evaluated based on OFV by a stepwise forward inclusion (ΔOFV > 6.64, P < 0.01) and backward deletion (ΔOFV < 10.83, P > 0.001) process. Besides this, goodness of fit plots split for datasets and covariate quartiles, plots of individual eta-values versus covariate values (ETA plots), and reduction in inter-individual variability on the parameter of interest, were evaluated. A bootstrap analysis (n = 500) stratified on dataset, was performed to assess the robustness of the final model and parameter estimates. […] The NPDEs of urine samples were plotted together due to a limited number of samples per compound. […] This was done to illustrate the concentration-time profiles of each compound under the current practice of linear bodyweight-based dosing. […] In these simulations, the growth curves published by Anchieta et al.

Row | θPNA50, PNA at which RFS reaches half of RFS0, bootstrap ([2]; PNA in days, bootstrap estimate (95% CI)) | θPNA50, PNA at which RFS reaches half of RFS0 ([2]; PNA in days, final model estimate (RSE %)) | non-linear formation of CYP2E1 pathway metabolites (PCM-cysteine and PCM-mercapturate) ([2]; among the dosages given in this study) | predicted difference in glucuronidation of PCM with PNA ([2]; between day 1 and day 30) | θBWb, power exponent of birthweight (BWb/985) on RFG, bootstrap ([2]; bootstrap estimate (95% CI)) | θBWc, power exponent of current weight (BWc/1012) on VP, bootstrap ([2]; bootstrap estimate (95% CI)) | VPP, distribution volume of the peripheral compartment, bootstrap ([2]; bootstrap estimate (95% CI), in L) | TVVP, typical distribution volume of the central compartment (VP), bootstrap ([2]; current weight 1012 g, bootstrap estimate (95% CI)) | TVVP, typical distribution volume of the central compartment (VP) ([2]; current weight 1012 g, final model estimate (RSE %)) | θBWb, power exponent of birthweight (BWb/985) on RFG ([2]; final model estimate (RSE %)) | θBWc, power exponent of current weight (BWc/1012) on VP ([2]; final model estimate (RSE %)) | VPP, distribution volume of the peripheral compartment ([2]; final model estimate (RSE %), in L) | contribution of glucuronidation to elimination in neonates ([2]; preterm neonates of this study) | fVG / fVS / fVO, distribution volume of metabolite as fraction of VP of PCM ([2]; final model estimate (RSE %)) | TVCLrG / TVCLrS / TVCLrO, typical renal clearance of metabolite, bootstrap ([2]; birthweight 985 g, PNA 5 days, bootstrap estimate (95% CI)) | TVCLrG / TVCLrS / TVCLrO, typical renal clearance of metabolite ([2]; birthweight 985 g, PNA 5 days, final model estimate (RSE %)) | fVG / fVS / fVO, distribution volume of metabolite as fraction of VP of PCM, bootstrap ([2]; bootstrap estimate (95% CI)) | Structure (SMILES) | fraction of PCM metabolized into sulphate conjugate [1] | fraction of administered PCM excreted unchanged in the urine [1] | fraction of administered dose metabolized via the oxidative route (NAPQI) [1]
1 | 8.71 (4.55–15.6) | 9.18 (23) | could not identify this non-linearity | sixfold | 0.487 (0.137–0.917) | 0.844 (0.659–1.05) | 0.247 (0.167–0.348) | 0.955 (0.775–1.030) L | 0.955 (3) L | 0.479 (45) | 0.836 (11) | 0.244 (12) | 5–15% | – | – | – | – | CC(=O)Nc1ccc(O)cc1 [PCM, paracetamol] | ~30% | 2–5% | 8–10%
2 | – | – | – | – | – | – | – | – | – | – | – | – | – | 0.6 (9) | 0.0428 (0.0383–0.0482) L/h | 0.0425 (5) L/h | 0.6 (0.5–0.8) | CC(=O)Nc1ccc(O[C@@H]2O[C@H](C(=O)O)[C@@H](O)[C@H](O)[C@H]2O)cc1 [PCM-glucuronide, paracetamol-glucuronide] | – | – | –
3 | – | – | – | – | – | – | – | – | – | – | – | – | – | 0.326 (4) | – | – | 0.330 (0.300–0.417) | CC(=O)Nc1ccc(OS(=O)(=O)O)cc1 [PCM-sulfate, paracetamol-sulfate] | – | – | –

Reference: article PMC10547636 (Pharmaceutical Research, 2023)
